{"source": "patent US6716883B1", "about": "“Composition useful to treat periodontal disease” (priority 1998, dated 2004)", "type_in_all_cases": "cell-based", "key": {"[1]": {"tested_on": "rat bone marrow cells (RBMC)", "experiment": "APA in primary rat bone marrow cell (RBMC) bone formation system", "description": "Rat bone marrow cells were derived from femoral bones removed from adult male Wistar rats as described previously (Maniatopoulos et al., Cell Tissue Res, 1988, 254(2):317-330). These cells, grown in the presence of dexamethasone, vitamin C and b-glycerophosphate, differentiated into osteoblasts as shown by increases in APA and the production of mineralized bone nodules within 12-14 days. For the purposes of this investigation, we analyzed 10-16 day cultures for APA, as this was a reliable marker for osteoblastic differentiation in this system."}, "[2]": {"tested_on": "rat SBMC (stromal bone marrow cell) line", "experiment": "AP activity in rat stromal bone marrow cell (SBMC) line", "method": "Cells for the rat SBMC model were obtained from Dr. Sandu Pitaru (Tel Aviv University, Israel) and maintained in T25 tissue culture flasks (Sarstedt, Newton, N.C., USA) in a medium composed of αMEM+RNA+DNA+antibiotic supplemented with 10% fetal calf serum, 10 mM β-glycerophosphate, 10^−8M dexamethasone, 50 μg/ml vitamin C and 3 ng/ml fibroblast growth factor. The media were changed every 48 hours and the cells subcultured when almost confluent (approximately every 72 hrs). Cells were grown for a period of 1-2 weeks to allow for formation of mineralized bone nodules.\nSBMC cultures were assayed for AP activity using paranitrophenol-phosphate (pN-p) as the substrate as described above for CPO cultures. In some cases, AP activity was also measured using direct staining of SBMC cultures in 96 well plates as described previously (Tenenbaum et al., Anat Rec. 1995. 242(2):200-10). Mineralization in the SBMC cultures was determined using Alizarin Red staining in situ that was assessed with the Titertek spectrophotometer set at 525 nm."}, "[3]": {"tested_on": "chick periosteal osteogenesis (CPO) cultures", "experiment": "RT-PCR mRNA levels of bone proteins (AP, BSP, collagen type I, OPN) in CPO cultures", "method": "For the purposes of this investigation, the effects of a potent aryl hydrocarbon, TCDD (2,3,7,8-tetrachlorodibenzo-p-dioxin or dioxin) on the early events occurring during osteogenesis were determined. The CPO model traverses a number of phases of osteogenesis. Therefore, it was possible to design temporal or “window” experiments in order to determine the phases of osteogenesis that were sensitive to TCDD and/or resveratrol. […] All cultures were maintained for the entire 6-day period. The compounds were administered over four different temporal phases, as outlined below in the time-line diagram: a) days 0-6; b) days 0-2; c) days 2-4 or d) days 4-6 (Note: all cultures were stopped at 6 days). Results were compared to e) vehicle alone over days 0-6. [drawing 1]\nThe isolation of total RNA from periosteal cultures to determine affect of TCDD on message levels of bone proteins was accomplished using the QIAGEN Rneasy® kit and QIAShredder® (Hilden, Germany) according to the manufacturer's instructions. Total RNA (2 μg) was reverse transcribed using SuperScript II™ RNase H^− Reverse Transcriptase (Gibco BRL, City Country). PCR reactions were performed in […] reactions at a cycle number ensuring a linear amplification profile (BSP, 5 min at 94° C., 30 cycles [of 20 sec at 94° C., 20 sec at 55° C., 20 sec at 72° C.]; Collagen 5 min at 94° C., 30 cycles [of 20 sec 94° C. 20 sec 58° C., 20 sec 72° C.]; AP 5 min at 94° C., 30 cycles [of 20 sec 94° C., 20 sec 59° C., 20 sec 72° C.]; OPN 5 min at 85° C., 5 min at 94° C., 25 cycles [20 sec at 94° C., 20 sec at 60° C., 20 sec at 72° C.] 7 min at 72° C.). The oligonucleotides for BSP (sense: 5′-[…]-3′; antisense: 5′-[…]-3′) AP (sense: 5′-[…]-3′; antisense: 5′-[…]-3′), Collagen (sense: 5′-[…]-3′; antisense: 5′-[…]-3′); OPN (sense 5′-[…]-3′; antisense 5′-[…]-3′) were synthesized by Life Technologies (Gibco BRL, Rockville, Md.). PCR products were electrophoresed on 1.5 (wt/vol) % agarose gels with 0.1 μg/ml ethidium bromide. The gels were visualized on an UV transilluminator and photographed using 667 Polaroid film. The inverse images of the photographs were analyzed by densitometry. All values were normalized for the internal control, β-actin."}, "[4]": {"tested_on": "chick periosteal osteogenesis (CPO) cultures", "experiment": "Histological evaluation of bone formation in chick periosteal osteogenesis (CPO) cultures", "method": "In this experiment, the chick periosteal osteogenesis (CPO) model was used to determine if bone loss is induced by dioxin. The CPO model has been described in detail previously (Nijweide, Proc. Kon. Ned. Akad. Wet. 1975. C78:410-417) and was prepared for the purposes of this experiment as set out below.\nFollowing sacrifice, two triangular calvarial explants were removed by cutting along the central suture, transversely along the posterior suture and laterally above the eye in 17-day-old embryonic chicks. The ectocranial periosteum (outer curved surface) was peeled off using forceps under microscopic magnification and folded so that the surface originally facing bone was in apposition to itself as described previously (Tenenbaum et al., Calcif Tissue Int. 34:76-79). The folded explant was then placed on a Millipore filter (HA 0.45 μm), which was transferred onto a stainless steel grid resting in the center well of an organ culture dish (Falcon Plastics, Lincoln Park, N.J., USA) that was filled with culture media to a level such that the culture was supported at the gas-liquid interface (˜1.5 ml of media). Three cultures were placed in each dish which was then covered and incubated at 37° C. in a humidified atmosphere containing 5% CO2 in air. Media changes occurred on days 2 and 4, and the medium was comprised of BGJb medium (Fitton-Jackson Modification) with L-glutamine (Gibco, Grand Island, N.Y., USA) and supplemented with 2% antibiotic (10,000 units/ml Penicillin G sodium, 10,000 μg/ml Streptomycin sulfate in 0.85% saline) (Gibco), 10% fetal calf serum (Gibco), 10^−7M dexamethasone (Sigma, St. Louis, Mo., USA), 10 mM β-glycerophosphate, and 300 μg/ml L-ascorbate (Gibco).\nFor the purposes of this investigation, the effects of a potent aryl hydrocarbon, TCDD (2,3,7,8-tetrachlorodibenzo-p-dioxin or dioxin) on the early events occurring during osteogenesis were determined. The CPO model traverses a number of phases of osteogenesis. […]"}, "[5]": {"tested_on": "rat bone marrow cell line (RBMCL)", "experiment": "APA in rat bone marrow cell line (RBMCL)"}, "[6]": {"conditions": "resveratrol 4×10^−8M to 3×10^−5M with TCDD"}}, "data": [{"molecule": "Oc1ccc(C=Cc2cc(O)cc(O)c2)cc1", "note": "[resveratrol, 3,5,4′-trihydroxystilbene]", "values": [{"measurement": "abrogation of TCDD effects on APA", "setting": "[1]; resveratrol 10^−6 molar in alcohol, added together or singly between days 4-10, FIG. 9", "value": "completely abrogated the effects of TCDD"}, {"measurement": "effect on APA", "setting": "[1]; resveratrol alone", "value": "no significant effects"}, {"measurement": "effect on AP activity", "setting": "[2]; increasing concentration of resveratrol, TCDD 4.12×10^−11M", "value": "had no effect"}, {"measurement": "abrogation of TCDD effect on AP activity", "setting": "[2]; resveratrol 4×10^−8M to 1×10^−5M, TCDD 1.1×10^−9M", "value": "abrogated the effects of TCDD"}, {"measurement": "reversal of TCDD reduction in AP activity", "setting": "[2]; resveratrol at various concentrations, TCDD 3.3×10^−9M and higher", "value": "not reversed"}, {"measurement": "reversal of TCDD inhibition of BSP mRNA", "setting": "[3]; TCDD with resveratrol", "value": "reversed completely"}, {"measurement": "mRNA levels for OPN", "setting": "[3]; both TCDD and resveratrol", "value": "restored"}, {"measurement": "mRNA levels for Type I collagen", "setting": "[3]; both TCDD and resveratrol, versus control", "value": "identical levels"}, {"measurement": "message for BSP", "setting": "[3]; resveratrol alone", "value": "partially down-regulate"}, {"measurement": "message for collagen", "setting": "[3]; resveratrol alone", "value": "partially down-regulate"}, {"measurement": "reversal of TCDD effect on bone formation (histology)", "setting": "[4]; cultures treated with both TCDD and resveratrol, FIG. 1D", "value": "complete reversal of the TCDD effect"}, {"measurement": "bone formation (histology)", "setting": "[4]; resveratrol alone, FIG. 1C", "value": "large deposits of bone similar to the control cultures"}, {"measurement": "APA in comparison to control", "setting": "[5]; [6]", "value": "appeared to stimulate APA"}, {"measurement": "inhibition of TCDD-mediated inhibition of osteoblastic differentiation (APA)", "setting": "[5]; [6]", "value": "able to inhibit TCDD-mediated inhibition of osteoblastic differentiation"}]}, {"molecule": "Clc1cc2c(cc1Cl)Oc1cc(Cl)c(Cl)cc1O2", "note": "[TCDD, 2,3,7,8-tetrachlorodibenzo-p-dioxin]", "values": [{"measurement": "inhibition at 0.001 µM", "setting": "[1]; Rattus norvegicus, Bone marrow cell, read-out: inhibition of osteodifferentiation as measured by APA, compared to alcohol-treated control", "value": "~50", "unit": "%"}, {"measurement": "reduction in AP activity", "setting": "[2]; TCDD 1.1×10^−9M", "value": 33, "unit": "%"}, {"measurement": "reduction in AP activity versus control", "setting": "[2]; TCDD 3.3×10^−9M and higher", "value": 33, "unit": "%"}, {"measurement": "dose dependence of reduction in AP activity", "setting": "[2]; TCDD 3.3×10^−9M to 4.12×10^−11M", "value": "dose dependant"}, {"measurement": "AP activity", "setting": "[2]; TCDD 4.12×10^−11M", "value": "not affected"}, {"measurement": "reduction in mRNA for BSP", "setting": "[3]; TCDD, p<0.05", "value": "~4", "unit": "fold"}, {"measurement": "reduction of mRNA levels for OPN", "setting": "[3]; TCDD, p<0.05", "value": "about 40%"}, {"measurement": "reduction of mRNA levels for type I collagen in comparison to control", "setting": "[3]; TCDD, p<0.05", "value": 50, "unit": "%"}, {"measurement": "reduction of message levels for AP in comparison to control", "setting": "[3]; TCDD, p<0.05", "value": "about 50%"}, {"measurement": "bone formation (histology)", "setting": "[4]; TCDD-treated CPO cultures, FIG. 1B", "value": "obvious changes in bone formation"}, {"measurement": "inhibition of osteogenic differentiation (APA)", "setting": "[5]; TCDD, 6 day cultures, in comparison to CPO and RBMC", "value": "lower dose of TCDD was able to inhibit osteogenic differentiation"}]}]}
